{
  "source": "ChEMBL document CHEMBL1921760",
  "about": "“Design, synthesis and biological evaluation of 6-pyridylmethylaminopurines as CDK inhibitors” (Bioorg Med Chem, 2011)",
  "data": [
    {"tested_on": "KM12", "assay": "Growth inhibition of human KM12 cells after 96 hrs by sulforhodamine B assay", "format": "functional", "conditions": "KM12, 96 h", "units": {"GI50": "µM"}, "values": [
      {"smiles": "CC[C@H](Nc1nc(NCc2ccccn2)c2ncn(C(C)C)c2n1)C(C)O", "note": "(mixture of isomers)", "GI50": 23},
      {"smiles": "CC[C@H](Nc1nc(NCc2ccccn2)c2ncn(C(C)C)c2n1)C(C)(C)O", "GI50": 38},
      {"smiles": "CCC(O)[C@H](CC)Nc1nc(NCc2cccnc2)c2ncn(C(C)C)c2n1", "note": "(mixture of isomers)", "GI50": 8.2}
    ]},
    {"target": "Cyclin-dependent kinase 1/cyclin B1 (Homo sapiens, UniProt P06493)", "sequence (P06493 whole entry)": "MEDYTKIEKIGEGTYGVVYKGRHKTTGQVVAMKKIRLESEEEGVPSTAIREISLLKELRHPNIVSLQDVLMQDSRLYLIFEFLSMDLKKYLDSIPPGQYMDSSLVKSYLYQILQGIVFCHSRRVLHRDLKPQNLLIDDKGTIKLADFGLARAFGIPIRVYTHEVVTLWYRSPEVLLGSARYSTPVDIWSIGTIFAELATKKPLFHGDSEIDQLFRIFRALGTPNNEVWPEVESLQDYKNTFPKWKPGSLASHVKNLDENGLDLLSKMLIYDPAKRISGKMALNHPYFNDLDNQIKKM", "sequence (P14635 whole entry, further chain)": "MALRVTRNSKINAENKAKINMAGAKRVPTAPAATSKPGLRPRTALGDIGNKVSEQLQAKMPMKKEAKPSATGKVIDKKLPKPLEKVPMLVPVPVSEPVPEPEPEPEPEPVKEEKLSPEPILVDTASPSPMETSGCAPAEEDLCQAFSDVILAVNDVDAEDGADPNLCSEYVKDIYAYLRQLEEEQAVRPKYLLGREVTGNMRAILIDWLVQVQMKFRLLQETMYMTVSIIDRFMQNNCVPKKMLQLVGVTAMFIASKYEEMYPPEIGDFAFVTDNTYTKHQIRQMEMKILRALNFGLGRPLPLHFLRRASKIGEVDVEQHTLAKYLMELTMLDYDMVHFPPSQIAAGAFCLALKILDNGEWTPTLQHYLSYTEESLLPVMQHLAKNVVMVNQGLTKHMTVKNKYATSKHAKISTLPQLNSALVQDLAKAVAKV", "assay": "Inhibition of CDK1/cyclin B", "format": "protein-complex assay", "conditions": "not given", "units": {"IC50": "µM"}, "values": [
      {"smiles": "CC[C@H](Nc1nc(NCc2ccccn2)c2ncn(C(C)C)c2n1)C(C)O", "note": "(mixture of isomers)", "IC50": 8.9},
      {"smiles": "CC[C@H](Nc1nc(NCc2ccccn2)c2ncn(C(C)C)c2n1)C(C)(C)O", "IC50": 24},
      {"smiles": "CCC(O)[C@H](CC)Nc1nc(NCc2cccnc2)c2ncn(C(C)C)c2n1", "note": "(mixture of isomers)", "IC50": 13}
    ]},
    {"tested_on": "HCT-116", "assay": "Growth inhibition of human HCT116 cells after 96 hrs by sulforhodamine B assay", "format": "functional", "conditions": "HCT-116, 96 h", "units": {"GI50": "µM"}, "values": [
      {"smiles": "CC[C@H](Nc1nc(NCc2ccccn2)c2ncn(C(C)C)c2n1)C(C)O", "note": "(mixture of isomers)", "GI50": 10},
      {"smiles": "CC[C@H](Nc1nc(NCc2ccccn2)c2ncn(C(C)C)c2n1)C(C)(C)O", "GI50": 32},
      {"smiles": "CCC(O)[C@H](CC)Nc1nc(NCc2cccnc2)c2ncn(C(C)C)c2n1", "note": "(mixture of isomers)", "GI50": 5.4}
    ]},
    {"tested_on": "not listed separately", "assay": "Metabolic stability in mouse liver microsomes assessed as compound metabolized at 10 uM after 30 mins by LC-MS analysis", "format": "ADME, Microsome", "conditions": "read-out: Activity", "units": {"metabolised at 0.5 h, 10 µM": "%"}, "values": [
      {"smiles": "CC[C@H](Nc1nc(NCc2ccccn2)c2ncn(C(C)C)c2n1)C(C)O", "note": "(mixture of isomers)", "metabolised at 0.5 h, 10 µM": 67},
      {"smiles": "CC[C@H](Nc1nc(NCc2ccccn2)c2ncn(C(C)C)c2n1)C(C)(C)O", "metabolised at 0.5 h, 10 µM": 53},
      {"smiles": "CCC(O)[C@H](CC)Nc1nc(NCc2cccnc2)c2ncn(C(C)C)c2n1", "note": "(mixture of isomers)", "metabolised at 0.5 h, 10 µM": 27}
    ]},
    {"tested_on": "A2780", "assay": "Growth inhibition of cisplatin-susceptible human A2780 cells after 96 hrs by sulforhodamine B assay", "format": "functional", "conditions": "A2780, 96 h", "units": {"GI50": "µM"}, "values": [
      {"smiles": "CC[C@H](Nc1nc(NCc2ccccn2)c2ncn(C(C)C)c2n1)C(C)O", "note": "(mixture of isomers)", "GI50": 10},
      {"smiles": "CC[C@H](Nc1nc(NCc2ccccn2)c2ncn(C(C)C)c2n1)C(C)(C)O", "GI50": 19},
      {"smiles": "CCC(O)[C@H](CC)Nc1nc(NCc2cccnc2)c2ncn(C(C)C)c2n1", "note": "(mixture of isomers)", "GI50": 4.3}
    ]},
    {"tested_on": "CH1", "assay": "Growth inhibition of doxorubicin-susceptible human CH1 cells after 96 hrs by sulforhodamine B assay", "format": "functional", "conditions": "CH1, 96 h", "units": {"GI50": "µM"}, "values": [
      {"smiles": "CC[C@H](Nc1nc(NCc2ccccn2)c2ncn(C(C)C)c2n1)C(C)O", "note": "(mixture of isomers)", "GI50": 21},
      {"smiles": "CC[C@H](Nc1nc(NCc2ccccn2)c2ncn(C(C)C)c2n1)C(C)(C)O", "GI50": 42},
      {"smiles": "CCC(O)[C@H](CC)Nc1nc(NCc2cccnc2)c2ncn(C(C)C)c2n1", "note": "(mixture of isomers)", "GI50": 11}
    ]},
    {"target": "Cyclin-dependent kinase 7/ cyclin H (Homo sapiens, UniProt P50613)", "sequence (P51946 whole entry)": "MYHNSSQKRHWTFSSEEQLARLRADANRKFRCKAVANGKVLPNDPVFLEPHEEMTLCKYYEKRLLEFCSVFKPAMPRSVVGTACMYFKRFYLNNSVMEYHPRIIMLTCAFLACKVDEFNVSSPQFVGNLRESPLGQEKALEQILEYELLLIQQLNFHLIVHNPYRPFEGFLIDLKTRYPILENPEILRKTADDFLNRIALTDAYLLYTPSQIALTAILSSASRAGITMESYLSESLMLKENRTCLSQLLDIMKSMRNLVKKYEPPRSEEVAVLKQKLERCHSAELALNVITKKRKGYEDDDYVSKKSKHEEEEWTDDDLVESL", "sequence (P50613 whole entry)": "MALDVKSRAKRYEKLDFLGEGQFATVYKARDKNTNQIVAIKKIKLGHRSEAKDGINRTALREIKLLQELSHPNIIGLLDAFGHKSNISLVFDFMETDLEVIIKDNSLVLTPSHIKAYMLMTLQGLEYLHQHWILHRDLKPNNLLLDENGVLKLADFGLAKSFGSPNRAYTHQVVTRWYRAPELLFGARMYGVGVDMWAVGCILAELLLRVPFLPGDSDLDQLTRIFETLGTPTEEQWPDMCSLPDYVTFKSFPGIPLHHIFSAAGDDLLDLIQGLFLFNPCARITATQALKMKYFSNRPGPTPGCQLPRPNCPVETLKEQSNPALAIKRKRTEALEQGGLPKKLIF", "assay": "Inhibition of CDK7/cyclin H", "format": "protein-complex assay", "conditions": "not given", "units": {"IC50": "µM"}, "values": [
      {"smiles": "CC[C@H](Nc1nc(NCc2ccccn2)c2ncn(C(C)C)c2n1)C(C)O", "note": "(mixture of isomers)", "IC50": 2.6},
      {"smiles": "CC[C@H](Nc1nc(NCc2ccccn2)c2ncn(C(C)C)c2n1)C(C)(C)O", "IC50": 4.3},
      {"smiles": "CCC(O)[C@H](CC)Nc1nc(NCc2cccnc2)c2ncn(C(C)C)c2n1", "note": "(mixture of isomers)", "IC50": 1.5}
    ]},
    {"tested_on": "HT-29", "assay": "Growth inhibition of human HT-29 cells after 96 hrs by sulforhodamine B assay", "format": "functional", "conditions": "HT-29, 96 h", "units": {"GI50": "µM"}, "values": [
      {"smiles": "CC[C@H](Nc1nc(NCc2ccccn2)c2ncn(C(C)C)c2n1)C(C)O", "note": "(mixture of isomers)", "GI50": 20},
      {"smiles": "CC[C@H](Nc1nc(NCc2ccccn2)c2ncn(C(C)C)c2n1)C(C)(C)O", "GI50": "> 50"},
      {"smiles": "CCC(O)[C@H](CC)Nc1nc(NCc2cccnc2)c2ncn(C(C)C)c2n1", "note": "(mixture of isomers)", "GI50": 12.5}
    ]},
    {"target": "Mitogen-activated protein kinase 1 (Homo sapiens, UniProt P28482)", "sequence (P28482 whole entry)": "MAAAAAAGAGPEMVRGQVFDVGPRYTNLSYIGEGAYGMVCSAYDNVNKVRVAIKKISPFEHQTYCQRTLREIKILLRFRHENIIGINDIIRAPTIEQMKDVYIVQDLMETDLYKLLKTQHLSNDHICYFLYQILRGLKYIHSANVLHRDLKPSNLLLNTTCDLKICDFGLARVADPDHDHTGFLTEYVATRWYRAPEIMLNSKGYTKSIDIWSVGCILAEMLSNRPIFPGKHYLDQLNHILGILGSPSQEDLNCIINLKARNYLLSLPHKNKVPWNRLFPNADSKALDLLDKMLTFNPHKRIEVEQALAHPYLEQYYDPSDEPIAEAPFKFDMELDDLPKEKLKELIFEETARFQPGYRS", "assay": "Inhibition of ERK2", "conditions": "not given", "units": {"IC50": "µM"}, "values": [
      {"smiles": "CC[C@H](Nc1nc(NCc2ccccn2)c2ncn(C(C)C)c2n1)C(C)O", "note": "(mixture of isomers)", "IC50": 77},
      {"smiles": "CC[C@H](Nc1nc(NCc2ccccn2)c2ncn(C(C)C)c2n1)C(C)(C)O", "IC50": "> 200"}
    ]},
    {"target": "Cyclin-dependent kinase 4/cyclin D1 (Homo sapiens, UniProt P11802)", "sequence (P11802 whole entry)": "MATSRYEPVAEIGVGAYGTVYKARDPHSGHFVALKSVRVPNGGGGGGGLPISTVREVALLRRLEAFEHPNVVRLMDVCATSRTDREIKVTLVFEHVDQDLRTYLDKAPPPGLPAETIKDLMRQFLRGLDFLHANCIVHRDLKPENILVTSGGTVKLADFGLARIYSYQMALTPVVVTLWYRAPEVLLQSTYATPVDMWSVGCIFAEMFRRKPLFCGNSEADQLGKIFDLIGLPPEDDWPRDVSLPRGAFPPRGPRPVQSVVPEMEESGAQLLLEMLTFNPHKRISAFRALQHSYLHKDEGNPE", "sequence (P24385 whole entry, further chain)": "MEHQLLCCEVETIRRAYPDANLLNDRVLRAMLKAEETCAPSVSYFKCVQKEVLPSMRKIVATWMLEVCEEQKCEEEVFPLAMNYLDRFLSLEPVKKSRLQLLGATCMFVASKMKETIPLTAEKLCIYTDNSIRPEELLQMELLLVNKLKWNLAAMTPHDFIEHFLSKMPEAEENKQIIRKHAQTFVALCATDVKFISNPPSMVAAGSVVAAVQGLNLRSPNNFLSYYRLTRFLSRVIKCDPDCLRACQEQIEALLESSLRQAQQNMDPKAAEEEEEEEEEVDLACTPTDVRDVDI", "assay": "Inhibition of CDK4/cyclin D1", "format": "protein-complex assay", "conditions": "not given", "units": {"IC50": "µM"}, "values": [
      {"smiles": "CC[C@H](Nc1nc(NCc2ccccn2)c2ncn(C(C)C)c2n1)C(C)O", "note": "(mixture of isomers)", "IC50": 18},
      {"smiles": "CC[C@H](Nc1nc(NCc2ccccn2)c2ncn(C(C)C)c2n1)C(C)(C)O", "IC50": 20},
      {"smiles": "CCC(O)[C@H](CC)Nc1nc(NCc2cccnc2)c2ncn(C(C)C)c2n1", "note": "(mixture of isomers)", "IC50": 11}
    ]},
    {"tested_on": "CH1", "assay": "Growth inhibition of doxorubicin-resistant human CH1 cells after 96 hrs by sulforhodamine B assay", "format": "functional", "conditions": "CH1, 96 h", "units": {"GI50": "µM"}, "values": [
      {"smiles": "CC[C@H](Nc1nc(NCc2ccccn2)c2ncn(C(C)C)c2n1)C(C)O", "note": "(mixture of isomers)", "GI50": 15.5},
      {"smiles": "CC[C@H](Nc1nc(NCc2ccccn2)c2ncn(C(C)C)c2n1)C(C)(C)O", "GI50": 26},
      {"smiles": "CCC(O)[C@H](CC)Nc1nc(NCc2cccnc2)c2ncn(C(C)C)c2n1", "note": "(mixture of isomers)", "GI50": 9.4}
    ]},
    {"target": "Cyclin-dependent kinase 2/cyclin E1 (Homo sapiens, UniProt P24941)", "assay": "Inhibition of CDK2/cyclin E", "format": "protein-complex assay", "conditions": "not given", "units": {"IC50": "µM"}, "values": [
      {"smiles": "CC[C@H](Nc1nc(NCc2ccccn2)c2ncn(C(C)C)c2n1)C(C)O", "note": "(mixture of isomers)", "IC50": 0.05},
      {"smiles": "CC[C@H](Nc1nc(NCc2ccccn2)c2ncn(C(C)C)c2n1)C(C)(C)O", "IC50": 0.31},
      {"smiles": "CCC(O)[C@H](CC)Nc1nc(NCc2cccnc2)c2ncn(C(C)C)c2n1", "note": "(mixture of isomers)", "IC50": 0.11}
    ]},
    {"tested_on": "A2780", "assay": "Growth inhibition of cisplatin-resistant human A2780 cells after 96 hrs by sulforhodamine B assay", "format": "functional", "conditions": "A2780, 96 h", "units": {"GI50": "µM"}, "values": [
      {"smiles": "CC[C@H](Nc1nc(NCc2ccccn2)c2ncn(C(C)C)c2n1)C(C)O", "note": "(mixture of isomers)", "GI50": 17},
      {"smiles": "CC[C@H](Nc1nc(NCc2ccccn2)c2ncn(C(C)C)c2n1)C(C)(C)O", "GI50": 44},
      {"smiles": "CCC(O)[C@H](CC)Nc1nc(NCc2cccnc2)c2ncn(C(C)C)c2n1", "note": "(mixture of isomers)", "GI50": 12.5}
    ]},
    {"tested_on": "not listed separately", "assay": "Inhibition of PKA", "conditions": "not given", "units": {"IC50": "µM"}, "values": [
      {"smiles": "CC[C@H](Nc1nc(NCc2ccccn2)c2ncn(C(C)C)c2n1)C(C)O", "note": "(mixture of isomers)", "IC50": "> 200"},
      {"smiles": "CC[C@H](Nc1nc(NCc2ccccn2)c2ncn(C(C)C)c2n1)C(C)(C)O", "IC50": "> 200"},
      {"smiles": "CCC(O)[C@H](CC)Nc1nc(NCc2cccnc2)c2ncn(C(C)C)c2n1", "note": "(mixture of isomers)", "IC50": "> 200"}
    ]}
  ]
}
